Measurements: patent US20150366839A1, “Schisantherin A for the treatment of neurodegenerative diseases” (priority 2014, published 2015)

Tests used:
Akt = experiment: p-Akt level after 6-OHDA, Western blot; assay type: cell-based, Human
Experimental: After treatment, SH-SY5Y cells were washed three times with PBS and then lysis with RIPA lysis buffer containing 1% PMSF and 1% Protease Inhibitor Cocktail and incubated for 30 min on ice. Cell lysates were centrifuged at 12,500 g for 20 min at 4° C. The supernatant was separated and the amount of protein was determined using the BCA protein assay kit (Thermo Scientific Pierce, USA). Protein samples (30 μg) were separated by SDS-PAGE (10% (w/v)) polyacrylamide gel and then transferred to a polyvinylidene difluoride (PVDF) membrane (Bio-Rad, Hercules, Calif.). Subsequently, the membrane was blocked with 5% (v/v) non-fat milk in PBST (PBS containing 0.1% Tween 20) for 1 h at room temperature. The blots were incubated overnight at 4° C. with primary antibodies. After three washes with PBST, the membranes were incubated with horseradish peroxidase-conjugated secondary antibodies (1:2000) in PBST with 5% non-fat milk for 1 h at room temperature. […] Quantitative assessment of protein bands was done with Gel Doc™ XRS equipped with Quantity One software.
The inventors also investigated the contribution of the Akt pathway in the neuroprotective effects of SchiA. The inventors measured phosphorylation-Akt (p-Akt) levels after pre-treated with 60 μM SchiA for 12 h and then exposed to 400 μM 6-OHDA for another 4 h (FIGS. 6A and 6B). […]

[1] = test system: intracellular ROS in SH-SY5Y cells; experiment: 6-OHDA-induced ROS accumulation (CM-H2DCFDA); assay type: cell-based, Human
Experimental: SH-SY5Y cells seeded at 96-well plates (1×10^4 cells/well) were incubated with 5 μM fluorescent probe CM-H2DCFDA at 37° C. for 20 min after treatment with SchiA or 6-OHDA. The fluorescence intensity was determined by multi-label counter at wavelengths of excitation at 493 nm and emission at 522 nm.
The generation of excess ROS by auto-oxidation of 6-OHDA, considered to be involved in 6-OHDA-induced cellular injury (Cohen and Heikkila 1974). Therefore, to examine whether SchiA prevented the production of ROS from 6-OHDA, the accumulation of ROS was measured by fluorescent probe CM-H2DCFDA in SH-SY5Y cells. The fluorescence intensity of CM-H2DCFDA was measured after SH-SY5Y cell were pretreated with different concentrations of SchiA for 12 h and then treated with or without 400 μM 6-OHDA for 4 h. The results of FIG. 3 are expressed as a percentage of that of the control group. ###P<0.005 versus control group; *p<0.05, **p<0.01 and *** p<0.005 versus 6-OHDA group.

Q: With `COc1cc2c(c(OC)c1OC)-c1c(cc3c(c1OC)OCO3)C[C@H](C)[C@](C)(O)[C@H]2OC(=O)c1ccccc1` [SchiA, Schisantherin A] as the molecule, how does the “6-OHDA-induced reduction in p-Akt level” value (Akt; 60 μM 12 h, then 400 μM 6-OHDA 4 h) read?
A: prevented the reduction in p-Akt level

Q: What about the “p-Akt level, compound alone” value (Akt; 60 μM, without 6-OHDA) of the same molecule?
A: did not change

Q: What about the “6-OHDA-induced intracellular ROS level” value ([1]; 3, 6, 12, 25 and 50 μM 12 h, then 400 μM 6-OHDA 4 h) of the same molecule?
A: significantly reduced

Q: And the “intracellular ROS levels, compound alone” value ([1]; without 6-OHDA)?
A: no obvious effect
